Measured values published in patent US11364299B2, “Non-addictive analgesic sustained-release drug delivery system and preparation method thereof” (LIPONT PHARMACEUTICALS INC., priority 2013, dated 2022).
Where a name gives a salt, the structure may show the parent alone. Read-outs that look alike come from different tables or passages of the source.

Columns and labels:
[1] = Verification of the solubility of various local anesthetics in the sustained-release drug delivery system; format: physicochemical; conditions: 4° C., 24 hours, 15-20 mg/ml
Procedure: The 12 local anesthetics were each added into the selected drug delivery systems, and the dissolution process of the drugs was observed (norm: 15-20 mg/ml, observed at 25° C. for 24 hours with recordation; or observed at 4° C. for 24 hours with recordation).

[2] = cited from earlier work
[3] = tested on: plasma proteins; conditions: concentration-dependent; cited from earlier work
[4] = tested on: patients; conditions: cited from earlier work
[5] = Solubility tests of ropivacaine free base and corresponding salts; format: physicochemical
Excerpt: If a drug dissolved completely, addition of this drug was continued until saturation.

[6] = Formulation experiment for sustained-release formulation delivery system; format: physicochemical; conditions: for Solubility: in ethanol, benzyl alcohol, benzyl benzoate, and ethyl lactate
Excerpt: Detailed experimental procedures were similar to those in Experimental Example 2. As shown in the experimental results, part of the drug delivery system combinations that may be used in the formula of the sustained-release formulation delivery system is as follows: […]

[7] = In vitro dissolution stability of the drug formulations; format: physicochemical; conditions: compared with ropivacaine free base
[8] = Compound compositions: dezocine and parecoxib in the drug delivery systems; format: physicochemical; conditions: prescribed compositions of Table IV; 25° C. and 4° C., about 24 h
[9] = Structural stability of ropivacaine sustained-release formulations (content determination); format: physicochemical; conditions: content determination after 30 days
[10] = in glyceryl monoacetate, 25° C.
[11] = in tetrahydrofurfuryl polyethylene glycol ether, 25° C.

## CCN(CC)CCOC(=O)c1ccc(N)cc1 [procaine]
[1]
  solubility in the ethyl oleate/soybean oil drug delivery system: slightly precipitated

## CCCN1CCCC[C@H]1C(=O)Nc1c(C)cccc1C [Ropivacaine, 1-propy 1-2,6-pipeco loxylidide laevo isomer]
[2]; epidural
  epidural absorption, half-time of fast phase: 14 min
  epidural absorption, half-time of slow phase: 4 h
[2]; in vivo
  steady distribution volume: 47 L
[3]
  association with plasma proteins: 94%
[4]; 0.1% ropivacaine versus 0.1% bupivacaine, elderly patients
  cardiac toxicity and safety: relatively lower cardiac toxicity and higher safety in use
[4]; 0.1% ropivacaine, elderly patients after lower limb surgeries (Zonglin YANG et al.)
  analgesic effect of continuous epidural infusion: comparable to that with 0.1% bupivacaine
[4]; 0.375% ropivacaine versus 0.25% bupivacaine (Qihong ZHAO et al.)
  transaxillary brachial plexus block: faster onset, better efficacy, and fewer adverse effects as compared to 0.25% bupivacaine
[4]; human, in vivo
  local infiltration anesthetic analgesia: substantial and lasting analgesic effect with few adverse reactions
[4]; human, one clinical injection
  analgesic duration: about 8 hours
[4]; versus bupivacaine (Shunfu CHEN)
  gynecologic post-operative patient-controlled analgesia: more suitable for patient-controlled analgesic local anesthesia in gynecologic post-operative patients than bupivacaine

## CCCN1CCCC[C@H]1C(=O)Nc1c(C)cccc1C.CS(=O)(=O)O [Ropivacaine methansulfonate]
[5]; in anhydrous ethanol, 25° C.
  Solubility: 320000 µg/mL
[5]; in anhydrous ethanol, 25° C., listed as ropivacaine methansulfonate
  Solubility: exceeding 190 mg/ml
[5]; in benzyl alcohol, 25° C.
  Solubility: 550000 µg/mL
[5]; in benzyl alcohol, 25° C., listed as ropivacaine methansulfonate
  Solubility: exceeding 190 mg/ml
[5]; in benzyl benzoate, 25° C.
  Solubility: 2000 µg/mL
[5]; in castor oil, 25° C.
  Solubility: 2000 µg/mL
[5]; in corn oil, 25° C.
  Solubility: 1700 µg/mL
[5]; in ethyl lactate, 25° C.
  Solubility: 198000 µg/mL
[5]; in ethyl lactate, 25° C., listed as ropivacaine methansulfonate
  Solubility: exceeding 190 mg/ml
[5]; in ethyl oleate, 25° C.
  Solubility: 2000 µg/mL
[5]; [10]
  Solubility: 50000 µg/mL
[5]; in olive oil, 25° C.
  Solubility: 2000 µg/mL
[5]; in sesame oil, 25° C.
  Solubility: 1700 µg/mL
[5]; in soybean oil, 25° C.
  Solubility: 2500 µg/mL
[5]; [11]
  Solubility: 13200 µg/mL
[6]
  solubility in mixed solvent: increased solubility
[7]
  solubility in various prescribed compositions: slightly poorer than that of ropivacaine free base

## C[C@@]12CCCCC[C@@H](Cc3ccc(O)cc31)[C@@H]2N [dezocine]
[6]
  Solubility: good solubility
[8]
  Solubility: > 30000 µg/mL

## CCCN1CCCC[C@H]1C(=O)Nc1c(C)cccc1C [Ropivacaine hydrochloride]
[5]; anhydrous ethanol, 25 °C, organic solvent or mixture, thermodynamic from solid, in anhydrous ethanol, read-out: Solubility
  Solubility: 95000 µg/mL
[5]; benzyl alcohol, 25 °C, organic solvent or mixture, thermodynamic from solid, in benzyl alcohol, read-out: Solubility
  Solubility: > 100000 µg/mL
[5]; benzyl benzoate, 25 °C, organic solvent or mixture, thermodynamic from solid, in benzyl benzoate, read-out: Solubility
  Solubility: 2500 µg/mL
[5]; castor oil, 25 °C, oil or lipid, thermodynamic from solid, in castor oil, read-out: Solubility
  Solubility: 1700 µg/mL
[5]; corn oil, 25 °C, oil or lipid, thermodynamic from solid, in corn oil, read-out: Solubility
  Solubility: 2500 µg/mL
[5]; ethyl lactate, 25 °C, organic solvent or mixture, thermodynamic from solid, in ethyl lactate, read-out: Solubility
  Solubility: 16500 µg/mL
[5]; ethyl oleate, 25 °C, oil or lipid, thermodynamic from solid, in ethyl oleate, read-out: Solubility
  Solubility: 2200 µg/mL
[5]; glyceryl monoacetate, 25 °C, organic solvent or mixture, thermodynamic from solid, in glyceryl monoacetate, read-out: Solubility
  Solubility: 30000 µg/mL
[5]; in benzyl alcohol, 25° C.
  Solubility: 140000 µg/mL
[5]; olive oil, 25 °C, oil or lipid, thermodynamic from solid, in olive oil, read-out: Solubility
  Solubility: 1700 µg/mL
[5]; sesame oil, 25 °C, oil or lipid, thermodynamic from solid, in sesame oil, read-out: Solubility
  Solubility: 2000 µg/mL
[5]; soybean oil, 25 °C, oil or lipid, thermodynamic from solid, in soybean oil, read-out: Solubility
  Solubility: 2000 µg/mL
[5]; tetrahydrofurfuryl polyethylene glycol ether, 25 °C, organic solvent or mixture, thermodynamic from solid, in tetrahydrofurfuryl polyethylene glycol ether, read-out: Solubility
  Solubility: 9000 µg/mL
[6]; mixture of benzyl benzoate with one of ethanol and benzyl alcohol
  solubility in mixed solvent: increased solubility

## CCC(=O)NS(=O)(=O)c1ccc(-c2c(-c3ccccc3)noc2C)cc1 [parecoxib]
[6]
  Solubility: good solubility
[8]
  Solubility: > 20000 µg/mL

## CCCN1CCCC[C@H]1C(=O)Nc1c(C)cccc1C [Ropivacaine free base]
[5]; in anhydrous ethanol, 25° C.
  Solubility: 155000 µg/mL
[5]; in anhydrous ethanol, 25° C., listed as ropivacaine free base
  Solubility: exceeding 150 mg/ml
[5]; in benzyl alcohol, 25° C.
  Solubility: 225000 µg/mL
[5]; in benzyl alcohol, 25° C., listed as ropivacaine free base
  Solubility: exceeding 150 mg/ml
[5]; in benzyl benzoate, 25° C.
  Solubility: 70000 µg/mL
[5]; in castor oil, 25° C.
  Solubility: 17000 µg/mL
[5]; in corn oil, 25° C.
  Solubility: 9400 µg/mL
[5]; in ethyl lactate, 25° C.
  Solubility: 80000 µg/mL
[5]; in ethyl oleate, 25° C.
  Solubility: 14900 µg/mL
[5]; [10]
  Solubility: 18000 µg/mL
[5]; in olive oil, 25° C.
  Solubility: 9800 µg/mL
[5]; in sesame oil, 25° C.
  Solubility: 11700 µg/mL
[5]; in soybean oil, 25° C.
  Solubility: 9600 µg/mL
[5]; [11]
  Solubility: 39600 µg/mL
[6]
  solubility in mixed solvent: increased solubility
[9]
  structural stability in various prescribed compositions: structurally stable and did not degrade

## CCCCNc1ccc(C(=O)OCCN(C)C)cc1 [tetracaine]
[1]
  solubility in the ethyl oleate/soybean oil drug delivery system: slightly precipitated
